Results: patent US9695155B2, “Herbicidal substituted pyrimidinyloxy benzene compounds” (E. I. DU PONT DE NEMOURS AND COMPANY, priority 2013, dated 2017)

What was measured:
barnyardgrass [1] = assay: Test A preemergence; assay type: in vivo, Echinochloa crus-galli; details: for Barnyardgrass plant response rating (0 to 100 scale, 0 is no effect, 100 is complete control): 125 g ai/ha; for Barnyardgrass plant response rating: 500 g ai/ha, 0 to 100 scale where 0 is no effect and 100 is complete control
Method in brief: (§1)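 Greenhouse pot test, loam/sand soil. Formulation: non-phytotoxic solvent mix plus surfactant. Pre: directed spray onto soil after sowing. Post: plants at 1–2 leaf, 2–10 cm. Rated visually vs untreated controls at ~10 d, 0 (no effect) to 100 (complete control).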

large (Lg) crabgrass [2] = assay: Test A preemergence; assay type: in vivo, Digitaria sanguinalis; details: for Crabgrass, Large plant response rating (0 to 100 scale): 125 g ai/ha; for Crabgrass, Large plant response rating: 500 g ai/ha, 0 to 100 scale where 0 is no effect and 100 is complete control
Method in brief: as §1

giant foxtail [3] = assay: Test A preemergence; assay type: in vivo, Setaria faberii; details: for Foxtail, Giant plant response rating (0 to 100 scale): 125 g ai/ha; for Foxtail, Giant plant response rating: 500 g ai/ha, 0 to 100 scale where 0 is no effect and 100 is complete control
Method in brief: as §1

morningglory [4] = assay: Test A preemergence; assay type: in vivo, Ipomoea spp.; details: for Morningglory plant response rating (0 to 100 scale): 125 g ai/ha; for Morningglory plant response rating: 500 g ai/ha, 0 to 100 scale where 0 is no effect and 100 is complete control
Method in brief: as §1

pigweed [5] = assay: Test A preemergence; assay type: in vivo, Amaranthus retroflexus; details: for Pigweed plant response rating (0 to 100 scale): 125 g ai/ha; for Pigweed plant response rating: 500 g ai/ha, 0 to 100 scale where 0 is no effect and 100 is complete control
Method in brief: as §1

velvetleaf [6] = assay: Test A preemergence; assay type: in vivo, Abutilon theophrasti; details: for Velvetleaf plant response rating (0 to 100 scale): 125 g ai/ha; for Velvetleaf plant response rating: 500 g ai/ha, 0 to 100 scale where 0 is no effect and 100 is complete control
Method in brief: as §1

wheat [7] = assay: Test A preemergence; assay type: in vivo, Triticum aestivum; details: for Wheat plant response rating (0 to 100 scale): 125 g ai/ha; for Wheat plant response rating: 500 g ai/ha, 0 to 100 scale where 0 is no effect and 100 is complete control
Method in brief: as §1

corn [8] = assay: Test A preemergence; assay type: in vivo, Zea mays; details: for Corn plant response rating (0 to 100 scale): 125 g ai/ha; for Corn plant response rating: 500 g ai/ha, 0 to 100 scale where 0 is no effect and 100 is complete control
Method in brief: as §1

barnyardgrass [9] = assay: Test A postemergence; assay type: in vivo, Echinochloa crus-galli; details: 0 to 100 scale where 0 is no effect and 100 is complete control; for Barnyardgrass plant response rating: 125 g ai/ha; for Plant response rating, Barnyardgrass: 500 g ai/ha
Method in brief: as §1

large (Lg) crabgrass [10] = assay: Test A postemergence; assay type: in vivo, Digitaria sanguinalis; details: 0 to 100 scale where 0 is no effect and 100 is complete control; for Crabgrass, Large plant response rating: 125 g ai/ha; for Plant response rating, Crabgrass, Large: 500 g ai/ha
Method in brief: as §1

giant foxtail [11] = assay: Test A postemergence; assay type: in vivo, Setaria faberii; details: 0 to 100 scale where 0 is no effect and 100 is complete control; for Foxtail, Giant plant response rating: 125 g ai/ha; for Plant response rating, Foxtail, Giant: 500 g ai/ha
Method in brief: as §1

morningglory [12] = assay: Test A postemergence; assay type: in vivo, Ipomoea spp.; details: 0 to 100 scale where 0 is no effect and 100 is complete control; for Morningglory plant response rating: 125 g ai/ha; for Plant response rating, Morningglory: 500 g ai/ha
Method in brief: as §1

pigweed [13] = assay: Test A postemergence; assay type: in vivo, Amaranthus retroflexus; details: 0 to 100 scale where 0 is no effect and 100 is complete control; for Pigweed plant response rating: 125 g ai/ha; for Plant response rating, Pigweed: 500 g ai/ha
Method in brief: as §1

velvetleaf [14] = assay: Test A postemergence; assay type: in vivo, Abutilon theophrasti; details: 0 to 100 scale where 0 is no effect and 100 is complete control; for Velvetleaf plant response rating: 125 g ai/ha; for Plant response rating, Velvetleaf: 500 g ai/ha
Method in brief: as §1

wheat [15] = assay: Test A postemergence; assay type: in vivo, Triticum aestivum; details: 0 to 100 scale where 0 is no effect and 100 is complete control; for Wheat plant response rating: 125 g ai/ha; for Plant response rating, Wheat: 500 g ai/ha
Method in brief: as §1

corn [16] = assay: Test A postemergence; assay type: in vivo, Zea mays; details: 0 to 100 scale where 0 is no effect and 100 is complete control; for Corn plant response rating: 125 g ai/ha; for Plant response rating, Corn: 500 g ai/ha
Method in brief: as §1

rice = assay: Test B flooded paddy test; assay type: in vivo, Oryza sativa; details: Flood, 250 g ai/ha; 0 to 100 scale where 0 is no effect and 100 is complete control
Method in brief: (§2)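 Seedlings are raised to two leaves, flooded to a depth of 3 cm and dosed by adding the compound to the floodwater. Water level is kept constant, and plants are scored visually versus controls 13–15 days later (0 = no effect, 100 = complete control).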

sedge, umbrella = assay: Test B flooded paddy test; assay type: in vivo, Cyperus difformis; details: Flood, 250 g ai/ha; 0 to 100 scale where 0 is no effect and 100 is complete control
Method in brief: as §2

Heteranthera limosa = assay: Test B flooded paddy test; assay type: in vivo; details: Flood, 250 g ai/ha; 0 to 100 scale where 0 is no effect and 100 is complete control
Method in brief: as §2

barnyardgrass [17] = assay: Test B flooded paddy test; assay type: in vivo, Echinochloa crus-galli; details: Flood, 250 g ai/ha; 0 to 100 scale where 0 is no effect and 100 is complete control
Method in brief: as §2

FC(F)c1cccc(Oc2ncc(Cl)cn2)c1-n1cc(Cl)cn1 [Compound 209]
Barnyardgrass plant response rating (0 to 100 scale, 0 is no effect, 100 is complete control) (barnyardgrass [1]): 60 | Barnyardgrass plant response rating (barnyardgrass [1]): 100 | Crabgrass, Large plant response rating (0 to 100 scale) (large (Lg) crabgrass [2]): 100 | Crabgrass, Large plant response rating (large (Lg) crabgrass [2]): 100 | Foxtail, Giant plant response rating (0 to 100 scale) (giant foxtail [3]): 100 | Foxtail, Giant plant response rating (giant foxtail [3]): 100 | Morningglory plant response rating (0 to 100 scale) (morningglory [4]): 10 | Morningglory plant response rating (morningglory [4]): 70 | Pigweed plant response rating (0 to 100 scale) (pigweed [5]): 100 | Pigweed plant response rating (pigweed [5]): 100 | Velvetleaf plant response rating (0 to 100 scale) (velvetleaf [6]): 90 | Velvetleaf plant response rating (velvetleaf [6]): 90 | Wheat plant response rating (0 to 100 scale) (wheat [7]): 0 | Wheat plant response rating (wheat [7]): 20 | Corn plant response rating (0 to 100 scale) (corn [8]): 0 | Corn plant response rating (corn [8]): 20 | Barnyardgrass plant response rating (barnyardgrass [9]): 40 | Plant response rating, Barnyardgrass (barnyardgrass [9]): 100 | Crabgrass, Large plant response rating (large (Lg) crabgrass [10]): 70 | Plant response rating, Crabgrass, Large (large (Lg) crabgrass [10]): 90 | Foxtail, Giant plant response rating (giant foxtail [11]): 70 | Plant response rating, Foxtail, Giant (giant foxtail [11]): 90 | Morningglory plant response rating (morningglory [12]): 50 | Plant response rating, Morningglory (morningglory [12]): 90 | Pigweed plant response rating (pigweed [13]): 100 | Plant response rating, Pigweed (pigweed [13]): 100 | Velvetleaf plant response rating (velvetleaf [14]): 100 | Plant response rating, Velvetleaf (velvetleaf [14]): 100 | Wheat plant response rating (wheat [15]): 0 | Plant response rating, Wheat (wheat [15]): 70 | Corn plant response rating (corn [16]): 30 | Plant response rating, Corn (corn [16]): 70 | Plant response rating, Rice (rice): 0 | Plant response rating, Sedge, Umbrella (sedge, umbrella): 60 | Plant response rating, Ducksalad (Heteranthera limosa): 75 | Plant response rating, Barnyardgrass (barnyardgrass [17]): 30

FC(F)c1cccc(Oc2ncc(Br)cn2)c1-n1cc(Cl)cn1 [Compound 210]
Barnyardgrass plant response rating (0 to 100 scale, 0 is no effect, 100 is complete control) (barnyardgrass [1]): 10 | Barnyardgrass plant response rating (barnyardgrass [1]): 70 | Crabgrass, Large plant response rating (0 to 100 scale) (large (Lg) crabgrass [2]): 100 | Crabgrass, Large plant response rating (large (Lg) crabgrass [2]): 100 | Foxtail, Giant plant response rating (0 to 100 scale) (giant foxtail [3]): 100 | Foxtail, Giant plant response rating (giant foxtail [3]): 100 | Morningglory plant response rating (0 to 100 scale) (morningglory [4]): 0 | Morningglory plant response rating (morningglory [4]): 0 | Pigweed plant response rating (0 to 100 scale) (pigweed [5]): 100 | Pigweed plant response rating (pigweed [5]): 100 | Velvetleaf plant response rating (0 to 100 scale) (velvetleaf [6]): 20 | Velvetleaf plant response rating (velvetleaf [6]): 60 | Wheat plant response rating (0 to 100 scale) (wheat [7]): 0 | Wheat plant response rating (wheat [7]): 0 | Corn plant response rating (0 to 100 scale) (corn [8]): 0 | Corn plant response rating (corn [8]): 0 | Barnyardgrass plant response rating (barnyardgrass [9]): 20 | Plant response rating, Barnyardgrass (barnyardgrass [9]): 40 | Crabgrass, Large plant response rating (large (Lg) crabgrass [10]): 40 | Plant response rating, Crabgrass, Large (large (Lg) crabgrass [10]): 70 | Foxtail, Giant plant response rating (giant foxtail [11]): 30 | Plant response rating, Foxtail, Giant (giant foxtail [11]): 60 | Morningglory plant response rating (morningglory [12]): 20 | Plant response rating, Morningglory (morningglory [12]): 30 | Pigweed plant response rating (pigweed [13]): 100 | Plant response rating, Pigweed (pigweed [13]): 100 | Velvetleaf plant response rating (velvetleaf [14]): 60 | Plant response rating, Velvetleaf (velvetleaf [14]): 80 | Wheat plant response rating (wheat [15]): 0 | Plant response rating, Wheat (wheat [15]): 0 | Corn plant response rating (corn [16]): 10 | Plant response rating, Corn (corn [16]): 30 | Plant response rating, Rice (rice): 15 | Plant response rating, Sedge, Umbrella (sedge, umbrella): 60 | Plant response rating, Ducksalad (Heteranthera limosa): 75 | Plant response rating, Barnyardgrass (barnyardgrass [17]): 0

COC(=O)c1cccc(Oc2ncc(Cl)cn2)c1-n1cc(Br)cn1 [Compound 211]
Barnyardgrass plant response rating (0 to 100 scale, 0 is no effect, 100 is complete control) (barnyardgrass [1]): 0 | Barnyardgrass plant response rating (barnyardgrass [1]): 60 | Crabgrass, Large plant response rating (0 to 100 scale) (large (Lg) crabgrass [2]): 80 | Crabgrass, Large plant response rating (large (Lg) crabgrass [2]): 100 | Foxtail, Giant plant response rating (0 to 100 scale) (giant foxtail [3]): 100 | Foxtail, Giant plant response rating (giant foxtail [3]): 100 | Morningglory plant response rating (0 to 100 scale) (morningglory [4]): 20 | Morningglory plant response rating (morningglory [4]): 70 | Pigweed plant response rating (0 to 100 scale) (pigweed [5]): 90 | Pigweed plant response rating (pigweed [5]): 100 | Velvetleaf plant response rating (0 to 100 scale) (velvetleaf [6]): 60 | Velvetleaf plant response rating (velvetleaf [6]): 90 | Wheat plant response rating (0 to 100 scale) (wheat [7]): 0 | Wheat plant response rating (wheat [7]): 0 | Corn plant response rating (0 to 100 scale) (corn [8]): 0 | Corn plant response rating (corn [8]): 0 | Barnyardgrass plant response rating (barnyardgrass [9]): 10 | Plant response rating, Barnyardgrass (barnyardgrass [9]): 50 | Crabgrass, Large plant response rating (large (Lg) crabgrass [10]): 10 | Plant response rating, Crabgrass, Large (large (Lg) crabgrass [10]): 50 | Foxtail, Giant plant response rating (giant foxtail [11]): 30 | Plant response rating, Foxtail, Giant (giant foxtail [11]): 60 | Morningglory plant response rating (morningglory [12]): 90 | Plant response rating, Morningglory (morningglory [12]): 100 | Pigweed plant response rating (pigweed [13]): 90 | Plant response rating, Pigweed (pigweed [13]): 100 | Velvetleaf plant response rating (velvetleaf [14]): 50 | Plant response rating, Velvetleaf (velvetleaf [14]): 90 | Wheat plant response rating (wheat [15]): 0 | Plant response rating, Wheat (wheat [15]): 0 | Corn plant response rating (corn [16]): 0 | Plant response rating, Corn (corn [16]): 0 | Plant response rating, Rice (rice): 0 | Plant response rating, Sedge, Umbrella (sedge, umbrella): 0 | Plant response rating, Ducksalad (Heteranthera limosa): 0 | Plant response rating, Barnyardgrass (barnyardgrass [17]): 0
